Measurements from patent US20250215030A1, “STAT MODULATORS AND USES THEREOF” (Recludix Pharma, Inc., priority 2022, published 2025).

Key:
[1] = target: T1, pSTAT3 (pY705-STAT3) (Homo sapiens, UniProt P40763); experiment: MSD-pSTAT-PBMC Assay (pSTAT3, IL-6 stimulated); type: cell-based; settings: PBMC, compound 3 hrs, then 10 ng/mL IL-6 for 10 min; MSD pY705-STAT3; read-out: pSTAT3
T1 construct: host or cells: cryopreserved PBMC
How it was run: (§1)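 Phospho-STAT levels captured on anti-STAT3 or anti-STAT6 plates and detected with anti-pY705 or anti-pY641 antibodies (MSD read-out). Cryopreserved human PBMCs received compound for 3 h before a 10 min pulse of IL-6 (10 ng/mL, STAT3) or IL-4 (1 ng/mL, STAT6). IC50 fitted after unstimulated-background subtraction and DMSO normalization.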

[2] = target: T2, pSTAT6 (pY641-STAT6) (Homo sapiens, UniProt P42226); experiment: MSD-pSTAT-PBMC Assay (pSTAT6, IL-4 stimulated); type: cell-based; settings: compound 3 hrs, then 1 ng/mL IL-4 for 10 min
T2 construct: host or cells: cryopreserved PBMC
T2 sequence (P42226 1-847): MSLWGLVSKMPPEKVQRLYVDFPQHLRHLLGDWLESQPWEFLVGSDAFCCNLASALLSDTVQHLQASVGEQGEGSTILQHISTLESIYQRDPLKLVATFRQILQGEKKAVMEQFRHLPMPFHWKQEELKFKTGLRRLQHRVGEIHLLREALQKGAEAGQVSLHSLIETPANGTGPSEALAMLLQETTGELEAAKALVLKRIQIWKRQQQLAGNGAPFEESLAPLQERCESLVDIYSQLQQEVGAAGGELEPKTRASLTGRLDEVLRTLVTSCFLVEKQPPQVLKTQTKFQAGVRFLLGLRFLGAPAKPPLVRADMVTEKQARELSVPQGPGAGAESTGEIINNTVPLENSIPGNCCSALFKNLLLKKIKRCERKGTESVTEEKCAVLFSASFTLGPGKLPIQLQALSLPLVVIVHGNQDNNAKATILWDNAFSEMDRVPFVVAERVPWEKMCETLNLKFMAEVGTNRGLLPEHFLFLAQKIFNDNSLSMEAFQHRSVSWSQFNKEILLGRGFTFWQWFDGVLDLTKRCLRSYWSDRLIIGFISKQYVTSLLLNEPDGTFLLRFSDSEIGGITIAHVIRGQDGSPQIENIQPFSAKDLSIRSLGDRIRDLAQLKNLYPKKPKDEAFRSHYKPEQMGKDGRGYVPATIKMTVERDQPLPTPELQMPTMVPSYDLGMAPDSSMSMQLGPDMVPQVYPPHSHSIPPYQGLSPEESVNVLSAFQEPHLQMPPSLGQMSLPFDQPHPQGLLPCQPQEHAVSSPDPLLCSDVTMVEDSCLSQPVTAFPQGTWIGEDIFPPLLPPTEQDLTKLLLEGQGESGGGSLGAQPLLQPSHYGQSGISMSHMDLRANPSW
How it was run: as §1

T1 sequence (P40763 whole entry): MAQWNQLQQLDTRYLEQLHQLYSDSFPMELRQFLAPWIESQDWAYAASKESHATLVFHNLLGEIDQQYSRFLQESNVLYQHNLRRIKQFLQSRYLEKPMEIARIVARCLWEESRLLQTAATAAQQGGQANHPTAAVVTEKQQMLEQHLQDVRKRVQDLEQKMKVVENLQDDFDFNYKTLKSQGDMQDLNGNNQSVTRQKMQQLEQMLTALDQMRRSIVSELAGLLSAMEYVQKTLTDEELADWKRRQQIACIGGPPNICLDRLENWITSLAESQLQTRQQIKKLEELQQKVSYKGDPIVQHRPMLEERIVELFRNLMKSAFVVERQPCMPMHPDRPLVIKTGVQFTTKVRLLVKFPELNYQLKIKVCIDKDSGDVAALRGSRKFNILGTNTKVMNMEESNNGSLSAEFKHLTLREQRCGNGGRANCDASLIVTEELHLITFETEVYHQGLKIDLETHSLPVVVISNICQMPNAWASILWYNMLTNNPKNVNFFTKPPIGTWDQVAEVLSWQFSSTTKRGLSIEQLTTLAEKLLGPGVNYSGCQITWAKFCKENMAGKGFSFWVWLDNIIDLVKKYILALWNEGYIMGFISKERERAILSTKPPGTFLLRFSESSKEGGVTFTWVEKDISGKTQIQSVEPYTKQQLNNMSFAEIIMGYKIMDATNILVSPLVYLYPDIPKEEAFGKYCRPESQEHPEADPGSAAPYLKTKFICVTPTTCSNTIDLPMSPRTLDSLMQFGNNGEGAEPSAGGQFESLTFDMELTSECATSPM

Structure (SMILES) | IC50 [1] [nM] | IC50 [2] [µM]
CC(C)(C)C(=O)OCOP(=O)(OCOC(=O)C(C)(C)C)C(F)(F)c1ccc2sc(C(=O)N[C@H]3C[C@H]4C[C@H]4C[C@H]4CC[C@@H](C(=O)NC5CN(C(=O)CCC(F)(F)F)C5)N4C3=O)cc2c1 [Compound 215, (((difluoro(2-(((3S,6S,7aR, 8aS,9aR)-5-oxo-3-((1-(4,4,4-trifluoro-butanoyl)azetidin-3-yl)carbamoyl)decahydro-1H-cyclopropa[d]pyrrolo[1,2-a]azocin-6-yl)carbamoyl)benzo[b]thiophen-5-yl)methyl)phosphoryl)bis(oxy)) bis(methylene) bis(2,2-dimethyl-propanoate)] | < 100 | 0.1 to 1
CC(C)(C)C(=O)SCCOP(=O)(OCCSC(=O)C(C)(C)C)C(F)(F)c1ccc2sc(C(=O)N[C@H]3C[C@H]4C[C@H]4C[C@H]4CC[C@@H](C(=O)N5CC(c6ccccn6)C5)N4C3=O)cc2c1 [Compound 218, S,S′-((((difluoro(2-(((3S,6S,7aR, 8aS,9aR)-5-oxo-3-(3-(pyridin-2-yl)azetidine-1-carbonyl)decahydro-1H-cyclopropa[d]pyrrolo[1,2-a]azocin-6-yl)carbamoyl)benzo [b]thiophen-5-yl)methyl)phosphoryl)bis(oxy))bis(ethane-2,1-diyl)) bis(2,2-dimethyl-propanethioate)] | < 100 | > 3
CC(C)(C)C(=O)SCCOP(=O)(OCCSC(=O)C(C)(C)C)C(F)(F)c1ccc2sc(C(=O)N[C@H]3C[C@H]4C[C@H]4C[C@H]4CC[C@@H](C(=O)N5CC(c6c[nH]cn6)C5)N4C3=O)cc2c1 [Compound 219, S,S′-(((((2-(((3S,6S,7aR, 8aS,9aR)-3-(3-(1H-imidazol-4-yl)azetidine-1-carbonyl)-5-oxodecahydro-1H-cyclopropa[d]pyrrolo[1,2-a]azocin-6-yl)carbamoyl)benzo[b]thiophen-5-yl)difluoromethyl)phosphoryl)bis(oxy))bis(ethane-2,1-diyl)) bis(2,2-dimethyl-propanethioate)] | < 100 | 0.1 to 1
CC(C)(C)C(=O)SCCOP(=O)(OCCSC(=O)C(C)(C)C)C(F)(F)c1ccc2sc(C(=O)N[C@H]3C[C@H]4C[C@H]4C[C@H]4CC[C@@H](C(=O)N5CCN(C6CCOCC6)CC5)N4C3=O)cc2c1 [Compound 220, S,S′-((((difluoro(2-(((3S,6S,7aR, 8aS,9aR)-5-oxo-3-(4-(tetrahydro-2H-pyran-4-yl)piperazine-1-carbonyl)decahydro-1H-cyclopropa[d]pyrrolo[1,2-a]azocin-6-yl)carbamoyl)benzo[b]thiophen-5-yl)methyl)phosphoryl)bis(oxy))bis(ethane-2,1-diyl)) bis(2,2-dimethyl-propanethioate)] | < 100 | > 3
CC(C)CC(=O)SCCOP(=O)(OCCSC(=O)CC(C)C)C(F)(F)c1ccc2sc(C(=O)N[C@H]3C[C@H]4C[C@H]4C[C@H]4CC[C@@H](C(=O)N5CC(c6cncnc6)C5)N4C3=O)cc2c1 [Compound 222, S,S′-((((difluoro(2-(((3S,6S,7aR, 8aS,9aR)-5-oxo-3-(3-(pyrimidin-5-yl)azetidine-1-carbonyl)decahydro-1H-cyclopropa[d]pyrrolo[1,2-a]azocin-6-yl)carbamoyl)benzo[b]thiophen-5-yl)methyl)phosphoryl)bis(oxy))bis(ethane-2,1-diyl)) bis(3-methylbutane thioate)] | < 100 | > 3
CC(C)(C)C(=O)SCCOP(=O)(Cc1ccc2sc(C(=O)N[C@H]3C[C@H]4C[C@H]4C[C@H]4CC[C@@H](C(=O)N5CC(c6cccnc6)C5)N4C3=O)cc2c1)OCCSC(=O)C(C)(C)C [Compound 223, S,S′-(((((2-(((3S,6S,7aR, 8aS,9aR)-5-oxo-3-(3-(pyridin-3-yl)azetidine-1-carbonyl)decahydro-1H-cyclopropa[d]pyrrolo[1,2-a]azocin-6-yl)carbamoyl)benzo[b]thiophen-5-yl)methyl)phosphoryl)bis(oxy))bis(ethane-2,1-diyl)) bis(2,2-dimethyl-propanethioate)] | 100 to 1000 | > 3
CC(C)CC(=O)SCCOP(=O)(OCCSC(=O)CC(C)C)C(F)(F)c1ccc2sc(C(=O)N[C@H]3C[C@H]4C[C@H]4C[C@H]4CC[C@@H](C(=O)N[C@@H]5CCN(c6cccnc6)C5)N4C3=O)cc2c1 [Compound 224, S,S′-((((difluoro(2-(((3S,6S,7aR, 8aS,9aR)-5-oxo-3-(((R)-1-(pyridin-3-yl)pyrrolidin-3-yl)carbamoyl)decahydro-1H-cyclopropa[d]pyrrolo[1,2-a]azocin-6-yl)carbamoyl)benzo[b]thiophen-5-yl)methyl)phosphoryl)bis(oxy))bis(ethane-2,1-diyl)) bis(3-methylbutane thioate)] | < 100 | > 3
CC(C)CC(=O)SCCOP(=O)(OCCSC(=O)CC(C)C)C(F)(F)c1ccc2sc(C(=O)N[C@H]3C[C@H]4C[C@H]4C[C@H]4CC[C@@H](C(=O)N5CC(c6ncccn6)C5)N4C3=O)cc2c1 [Compound 225, S,S′-((((difluoro(2-(((3S,6S,7aR, 8aS,9aR)-5-oxo-3-(3-(pyrimidin-2-yl)azetidine-1-carbonyl)decahydro-1H-cyclopropa[d]pyrrolo[1,2-a]azocin-6-yl)carbamoyl)benzo[b]thiophen-5-yl)methyl)phosphoryl)bis(oxy))bis(ethane-2,1-diyl)) bis(3-methylbutane thioate)] | < 100 | 1 to 3
CC(C)(C)C(=O)SCCOP(=O)(OCCSC(=O)C(C)(C)C)C(F)(F)c1ccc2sc(C(=O)N[C@H]3C[C@@H]4C[C@@H]4C[C@H]4CC[C@@H](C(=O)N5CC(F)(c6ccccc6)C5)N4C3=O)cc2c1 [Compound 228, S,S′-((((difluoro(2-(((3S,6S,7aS, 8aR,9aR)-3-(3-fluoro-3-phenylazetidine-1-carbonyl)-5-oxodecahydro-1H-cyclopropa[d]pyrrolo[1,2-a]azocin-6-yl)carbamoyl)benzo[b]thiophen-5-yl)methyl)phosphoryl)bis(oxy))bis(ethane-2,1-diyl)) bis(2,2-dimethyl-propanethioate)] | 100 to 1000 | > 3
CC(C)OC(=O)CNP(=O)(Oc1ccccc1)C(F)(F)c1ccc2sc(C(=O)N[C@H]3C[C@@H]4C[C@@H]4C[C@H]4CC[C@@H](C(=O)N5CC(C(=O)N6CCOCC6)C5)N4C3=O)cc2c1 (stereo partly drawn) [Example 2, isopropyl ((difluoro(2-(((3S,6S,7aS,8aR,9aR)-3-(3-(morpholine-4-carbonyl)azetidine-1-carbonyl)-5-oxodecahydro-1H-cyclopropa[d]pyrrolo[1,2-a]azocin-6-yl)carbamoyl)benzo[b]thiophen-5-yl)methyl)(phenoxy)phosphoryl)glycinate] | > 3000 | > 3
CCCCC(=O)OCOP(=O)(OCOC(=O)CCCC)C(F)(F)c1ccc2sc(C(=O)N[C@H]3C[C@@H]4C[C@@H]4C[C@H]4CC[C@@H](C(=O)N5CC(C(=O)N6CCOCC6)C5)N4C3=O)cc2c1 [Example 4, (((difluoro(2-(((3S,6S,7aS,8aR,9aR)-3-(3-(morpholine-4-carbonyl)azetidine-1-carbonyl)-5-oxodecahydro-1H-cyclopropa[d]pyrrolo[1,2-a]azocin-6-yl)carbamoyl)benzo[b]thiophen-5-yl)methyl)phosphoryl)bis(oxy))bis(methylene) dipentanoate] | < 100 | > 3
